# Data reported in US20210380695A1, “STING AGONIST COMBINATION TREATMENTS WITH IMMUNE CHECKPOINT INHIBITORS” (ImmuneSensor Therapeutics, Inc., priority 2020, published 2021).
# Read-outs that look alike come from different tables or passages of the source.
# Legend:
# [1] = Subcutaneous dose escalation and repeat-dose tolerability study of Compound A in cynomolgus monkeys (priming and maintenance doses); type: in vivo
# Experimental: (§1) Male and female cynomolgus monkeys were assigned to groups and doses of Compound A were administered. Animals were dosed via subcutaneous injection at a volume of 2 mL/kg. The vehicle control article/diluent was phosphate-buffered saline (PBS).
# (§2) IFNα, TNFα, and IL-6 levels were measured at 3, 6, and 12 hours post-dosing. Dose related but variable changes were observed. […] IL-6 increases at 3 mg/kg and 10 mg/kg persisted at 12 hours postdose. TNFα levels increased at 3 hours in the 1 mg/kg group. […] The cytokine responses are consistent with the predicted STING pathway activation. Morbidity was observed within 1 day of administration of the 10 mg/kg/dose; as such, 3 mg/kg was selected as the high dose for the following repeat-dose phase (Phase II).
# (§3) In Phase II, 3 weekly administrations of 0.3 mg/kg of Compound A were tolerated. The 3 mg/kg dose in naïve animals was not tolerated and led to clinical observations of morbidity or death within 1 day of dosing. The findings were consistent with Compound A-mediated inflammatory response that was considered the probable cause of death.
# (§4) A priming dose of 0.1 mg/kg/day was administered 4 days prior to the first dose of 1.0 mg/kg/day Compound A to potentially allow a tolerance to develop to avoid the acute mortality noted during Phase II following administration of 3.0 mg/kg/day of Compound A to naïve animals. […] Increased plasma levels of IL-6 were noted 3 hours and 6 hours postdose.
# Edema is consistent with an inflammatory related pathology and the exaggerated pharmacology of the mode of action of Compound A. Administration of 3 weekly doses of 1.0 mg/kg/day (preceded by a priming dose of 0.1 mg/kg) or 0.6 mg/kg (without a priming dose) was tolerated. Animals tolerated an escalation to 3.0 mg/kg in Phase I, due to previous administrations at lower levels that allowed a tolerance to develop.
# STING pathway = assay: Plasma cytokine and chemokine levels after subcutaneous Compound A in cynomolgus monkeys; type: in vivo; conditions: for plasma levels of IL-6: 3 hours and 6 hours postdose; for plasma IFNα levels: male or female
# Experimental: as §1, §2, §3, §4
# [2] = Exposure (Cmax, AUC) of Compound A in cynomolgus monkeys; type: in vivo
# Experimental: as §1, §3
# B16F10 melanoma cells [3] = assay: B16F10 melanoma tumor model in C57BL6 mice: Compound A with anti-CTLA4 and/or anti-PD-L1 antibody; type: in vivo
# Experimental: FIG. 2, panels A and B show the effect of a triple combination of Compound A (I.T.), PD-L1 antibody (I.P.), and anti-CTLA4 antibody (I.P.). Groups of C57BL6 mice (n=5) bearing B16F10 tumors were treated as indicated on day 6, 10, and 14 after tumor implantation. […] Data are shown as mean±SEM.
# In the same set of experiments, the combination of 0.3 μg of Compound A (I.T.) and 200 μg of anti-PD-L1 antibody (I.P.) was also tested with and without the combination of 200 μg of anti-CTLA4 antibody (I.P.).
# B16F10 melanoma cells [4] = conditions: intratumorally
# Experimental: Groups of C57BL6/J mice (n=5) were implanted subcutaneously with B16F10 melanoma cells into the right flank on day 0. On day 6, 9, 12, and 15, mice were treated intratumorally with anti-CTLA4 antibody or DMXAA, or the combination of both anti-CTLA4 antibody and DMXAA. […] Data are shown as mean±SEM.
# Female C57BL6 mice at the age of 7-8 weeks were implanted on day 0 with 10^6 of B16F10 melanoma cells (ATCC CRL-6475) subcutaneously on their right flanks. On day 6, tumors were measured and mice were regrouped so that each group (n=5) had similar average tumor volumes (˜120 mm^3). On day 6, 9, 12, 15, mice were treated intratumorally with 50 μg of anti-CTLA4 antibody (BioXcell, BE0614), or 50 μg of DMXAA (Sigma-Aldrich, D5817), or the combination of both the anti-CTLA4 antibody and DMXAA. Mock treated group were injected with PBS intratumorally. Tumor volumes were measured every 2-3 days and mouse survival was monitored daily.
# [5] = Phase I dose escalation, subcutaneous injection
# [6] = Phase II, 3 mg/kg dose in naïve animals
# [7] = alone, I.T., day 6, 10, 14: 0.3 μg Compound A or 50 μg anti-CTLA4 antibody
# [8] = combination 0.3 μg Compound A (I.T.) with 10 μg anti-CTLA4 antibody (I.T.)
# [9] = combination 0.3 μg Compound A (I.T.) with 50 μg anti-CTLA4 antibody (I.T.)
# [10] = alone, day 6, 9, 12, 15: 50 μg anti-CTLA4 antibody or 50 μg DMXAA
# [11] = combination 50 μg anti-CTLA4 antibody and 50 μg DMXAA
smiles,measurement,setting,value
Nc1nc2c(ncn2[C@@H]2O[C@@H]3COP(=O)(O)OC4C(O)[C@H](n5cnc6c(N)ncnc65)O[C@@H]4COP(=O)(O)OC2C3OCC(F)(F)F)c(=O)[nH]1 (stereo partly drawn) [Compound A],tolerability,[1]; 3 weekly doses of 0.6 mg/kg without a priming dose,tolerated
same,tolerability,[1]; 3 weekly doses of 1.0 mg/kg/day preceded by a priming dose of 0.1 mg/kg,tolerated
same,dose level tolerated on escalation,[1]; [5],up to 3.0 mg/kg/dose
same,findings on escalation up to 3.0 mg/kg/dose,[1]; [5],"limited to increased body temperature and elevated IFNα, IL-6, and TNFα cytokine levels"
same,time to morbidity after administration,"[1]; Phase I, 10 mg/kg/dose",≤ 1 days
same,time to morbidity or death after dosing,[1]; [6],≤ 1 days
same,tolerability,[1]; [6],not tolerated
same,tolerability,"[1]; Phase II, 3 weekly administrations of 0.3 mg/kg",tolerated
same,survival,"[1]; Phase III, three weekly doses of 0.6 or 1.0 mg/kg/day (1.0 preceded by priming dose of 0.1 mg/kg/day)",survived until scheduled sacrifice
same,compound-related findings,[1]; animals administered 0.6 or 1.0 mg/kg/day,limited to a transient body temperature increase and mild to moderate clinical and anatomic pathology findings
same,"dose not tolerated (acute morbidity and/or death, pulmonary edema)",[1]; naïve animals,≥ 3.0 mg/kg
same,IFNα levels,"STING pathway; Phase I, 1 mg/kg and 3 mg/kg groups, 3 hours and 6 hours post dosing",Moderate levels
same,TNFα levels,"STING pathway; Phase I, 1 mg/kg group, 3 hours",increased
same,TNFα levels,"STING pathway; Phase I, 3 mg/kg and 10 mg/kg groups",Lower levels
same,IFNα levels,"STING pathway; Phase I, 3 mg/kg and 10 mg/kg, 12 hours after dosing","decreased 12 hours after dosing, but did not return to pre-dose levels"
same,IL-6 increases,"STING pathway; Phase I, 3 mg/kg and 10 mg/kg, 12 hours postdose",persisted
same,IFNα levels,"STING pathway; Phase I, 10 mg/kg group",Higher levels
same,plasma IL-6 levels,"STING pathway; Phase I, all groups, 3 and 6 hours post dosing",Increases
same,"IL-12, G-CSF, and IFNγ levels",STING pathway; Phase II,sporadic increases
same,changes in pro-inflammatory cytokines and chemokines MCP-1 and IP-10,STING pathway; Phase II,suggestive of an inflammatory response with resolution by 24 hours postdose
same,"plasma IL-1ra, IL-6, and IFNα cytokine levels","STING pathway; Phase II, 3 mg/kg dose level, 3 and 6 hours",dose-dependent increases
same,plasma levels of IL-6,"STING pathway; Phase III, 0.1 mg/kg/day",Increased
same,IP-10,"STING pathway; Phase III, 0.1 mg/kg/day, 3 hours post dosing, male and female",Slight elevation
same,levels of TNFα,"STING pathway; Phase III, 0.1 mg/kg/day, 6 hours postdose in male, 3 and 6 hours postdose in female",Elevated levels
same,TNFα levels,"STING pathway; Phase III, 0.1 mg/kg/day, 24 hours post dosing",returned to non-detectable level
same,IL-6 levels,"STING pathway; Phase III, 0.1 mg/kg/day, 24 hours postdose",returned to a non-detectable level
same,plasma IFNα levels,"STING pathway; Phase III, 0.1 mg/kg/day",did not cause significant increase
same,plasma levels of IL-6,"STING pathway; Phase III, 0.6 mg/kg/day",Increased
same,levels of TNFα,"STING pathway; Phase III, 0.6 mg/kg/day, 6 hours postdose in male, 1.5, 3, and 6 hours postdose in female",Elevated levels
same,plasma IFNα levels,"STING pathway; Phase III, 0.6 mg/kg/day",did not cause significant increase
same,IP-10,"STING pathway; Phase III, 0.6 mg/kg/day, throughout the time course",No significant elevation
same,IP-10 level,"STING pathway; Phase III, 1 mg/kg/day, 1.5, 3, and 6 hours postdose",no increased IP-10 level
same,TNFα levels,"STING pathway; Phase III, 1 mg/kg/day, 1.5, 3, and 6 hours postdose, male and female",Elevated
same,IFNα levels,"STING pathway; Phase III, 1 mg/kg/day, 1.5 and 3 hours postdose",did not cause significant change
same,IL-6 levels,"STING pathway; Phase III, 1 mg/kg/day, 3 and 6 hours postdose, male and female",Marked increase
same,IFNα levels,"STING pathway; Phase III, 1 mg/kg/day, 6 hours postdose, male and female",elevated levels
same,"increase of exposure (mean Cmax, AUC0-2, AUC0-8, AUC0-24) with dose","[2]; 0.3 to 3 mg/kg/day, Day 1 of Phase II",generally dose-proportional
same,"sex differences in mean Cmax, AUC0-2, AUC0-8, and AUC0-24 values",[2]; male vs female,less than 2 fold
same,accumulation after multiple doses,[2]; multiple doses of 0.3 mg/kg/day,No accumulation
same,mouse survival,B16F10 melanoma cells [3]; [7],extended mouse survival
same,tumor growth,B16F10 melanoma cells [3]; [7],reduced tumor growth
same,mouse survival compared to both agents alone,B16F10 melanoma cells [3]; [8],improved mouse survival
same,tumor growth compared to both agents alone,B16F10 melanoma cells [3]; [8],further suppressed tumor growth
same,suppression of tumor growth compared to 0.3 μg Compound A (I.T.) with 200 μg anti-CTLA4 antibody (I.P.),B16F10 melanoma cells [3]; [9],more effective
same,tumor remission,B16F10 melanoma cells [3]; [9],more dramatic tumor remission
same,reduction in tumor growth compared to 0.3 μg Compound A (I.T.) with 50 μg anti-CTLA4 antibody (I.T.),B16F10 melanoma cells [3]; combination 0.3 μg Compound A (I.T.) with 200 μg anti-CTLA4 antibody (I.P.),inferior
same,reduction in tumor growth compared to 0.3 μg Compound A (I.T.) with 50 μg anti-CTLA4 antibody (I.T.),B16F10 melanoma cells [3]; combination 0.3 μg Compound A (I.T.) with 200 μg anti-PD-L1 antibody (I.P.),inferior
same,anti-tumor effect compared to 200 μg anti-CTLA4 antibody administered systemically,B16F10 melanoma cells [3]; combination intratumoral Compound A with 10 μg anti-CTLA4 antibody (I.T.),similar
same,tumor size and overall survival compared to 200 μg anti-CTLA4 antibody administered systemically,B16F10 melanoma cells [3]; combination intratumoral Compound A with 50 μg anti-CTLA4 antibody (I.T.),significant benefits
same,effect on tumor growth compared to 0.3 μg Compound A (I.T.) with 50 μg anti-CTLA4 antibody (I.T.),"B16F10 melanoma cells [3]; triple combination 0.3 μg Compound A (I.T.), 200 μg anti-PD-L1 antibody (I.P.), 200 μg anti-CTLA4 antibody (I.P.)",comparable
Cc1ccc2c(=O)c3cccc(CC(=O)O)c3oc2c1C [DMXAA],mice survival,B16F10 melanoma cells [4]; [10],prolonged survival
same,tumor growth,B16F10 melanoma cells [4]; [10],greatly suppressed tumor growth
same,controlling tumor growth compared to monotherapy,B16F10 melanoma cells [4]; [11],significant improved effect
same,extending survival compared to monotherapy,B16F10 melanoma cells [4]; [11],significant improved effect
